The record followed here is US20060159676A1, “Methods for modulating angiogenesis, lymphangiogenesis, and apoptosis with apelin compositions” (priority 2005, published 2006).

One experiment has as its system CAM blood vessels. The experiment in a line: Chick chorioallantoic membrane (CAM) assay. Format: in vivo, chicken. The note with it: 50 ng on filter disc, three days, vs PBS. As to the method:
Chicken eggs were incubated at 37° C. in a humidified chamber. On day 10 of development, a small window was made in the outer shell of the egg, and the CAM was released from its attachment to the inner shell membrane. A larger window was then made in the egg to allow for addition of the filter paper containing growth factor. Filter discs (3 MM Whatman) of 7-8 mm diameter were pretreated with 10 μl of 0.1% cortisone acetate (Sigma) solution to avoid inflammation of the CAM. The filter discs were air dried prior to application of growth factors. […] After air-drying, the filter discs were placed on the CAM, and eggs were returned to the incubator for three days. Filter discs and the attached CAM were then excised, washed with PBS, trimmed to the size of the disc, and photographed for quantitative analysis (FIGS. 7A and 7B). The number of vessel branch points was determined using a blind protocol. The results are shown as the mean of three independent experiments ±s.e.m. (FIG. 7C).

In experiment [1] the test system is BAE/APJ#2 cells (bovine aortic endothelial cells expressing mouse APJ). The experiment is described as follows: BAE/APJ#2 endothelial cell proliferation (BrdU incorporation). Format: cell-based. The note with it: 10 ng/ml, 24 hours, after 48 hours serum starvation. As to the method:
SU1498 was included in proliferation cultures at a concentration of 10 ng/ml and results were assayed using BrdU incorporation. After growth factor incubation, BrdU was added to each well at a final concentration of 10 μM for 2 hours, cells were washed, and fixed for BrdU immunocytochemistry.
Cells were fixed in 100% ice cold methanol at 4° C. for 2 hours to overnight. Prior to staining, cells were air dried and rehydrated for 3 minutes with PBS buffer. DNA was denatured at 37° C. with 2 M HCl, and neutralized with 2 washes for 5 minutes in 0.1 M borate buffer (pH 8.5). […] FITC-labeled anti-BrdU antibody (5 μg/ml) in block was added for 1 hour at room temperature. Cells were counterstained with propidium iodide following several washes in PBS buffer. For each experiment, 4 random fields were photographed for determination of percentage BrdU labeling.

Another experiment relates to BAE/APJ#2 cells. The note with it: 10 ng/ml in bottom chamber, 16 hours. As to the method:
Bovine aortic endothelial cells (BAE) were cultured in DMEM supplemented with 10% fetal bovine serum (FBS) and penicillin/streptomycin. For generation of stable cell lines expressing APJ, the mouse APJ coding region was cloned into the pcDNA 3.1 vector downstream of the CMV promoter, in frame with a myc epitope at the C-terminal end of the protein, and upstream of the neomycin gene. Bovine aortic endothelial (BAE) cells were transfected with this construction using the Superfect transfection kit (Qiagen) and selected for resistance to G418 (600 μg/ml). Colonies were isolated and screened using RT-PCR for expression of mouse APJ and also by immunocytochemistry for expression of the myc epitope.
Cell migration assays were performed using Transwell cell culture migration chambers (Becton Dickinson) with 8 micron pore size. BAE/APJ#2 cells were plated in serum free conditions in 100 μl at a concentration of 1×10^5 ml in the upper chamber of the migration chamber. Following cell attachment to the membrane, 10 ng/ml of growth factor was added to the bottom chamber, in a total volume of 0.5 ml. […] Cells attached to the membrane in the lower chamber were stained with DAPI, and 3 random fields were counted for each experimental condition.

For a further experiment, the system named is bEnd3 cells. The settings on record: apelin 10 ng/ml in bottom chamber; VEGF 50 ng/ml as comparison. As to the method: Cell migration assays were performed using the bEnd3 cells in Transwell cell culture migration chambers (FIG. 20). The cells were plated in serum free medium in the upper chamber of the migration chamber. […] The cells that migrated to the bottom chamber were visualized by DAPI stain of the nuclei of the cells (Panels A, B, and C).

The subject of a further experiment is endothelial cells. The note with it: apelin 10 ng/ml, after 48 hours serum starvation; VEGF 50 ng/ml as comparison. On the procedure: To determine what effect, if any, apelin expression has on apoptosis, TUNEL assays were performed. […] Cells were stained with a DAPI stain (FIG. 21, Panels A, B, and C) or in the TUNEL assay which stains for broken DNA, indicating cells undergoing apoptosis (FIG. 21, Panels D, E, and F).

Experiment [2] relates to SVEC cells (lymphatic endothelial cell line SVEC4-10). The note with it: apelin 10 ng/ml, overnight serum starve, 8 hours of treatment.
Procedure: Cell migration assays as described above were performed with SVEC cells. Apelin was provided at a concentration of 10 ng/ml, and VEGF-C was provided at a concentration of 100 ng/ml.

Consider Apelin-13, for which, in the experiment with CAM blood vessels, the blood vessel formation entry is given as “increased” and the “leakage of blood vessels” value is “increased”. Moreover, the “endothelial cell proliferation (BrdU labeling)” value in experiment [1] was “promotes endothelial cell proliferation to a similar extent as VEGF”. In the experiment with BAE/APJ#2 cells, the “endothelial cell migration (cells per field)” value is given as “promotes endothelial cell migration”. Besides, the “endothelial cell migration (chemotaxis)” value with bEnd3 cells is recorded as “acts as chemotactic agent for the endothelial cells to the same extent as VEGF”. Besides, the “apoptosis (TUNEL staining)” value in the experiment with endothelial cells is on record as “anti-apoptotic effect on endothelial cells, to the same extent as VEGF”. The “lymphatic endothelial cell migration” value in experiment [2] was “chemotactic agent for lymphatic endothelial cells”.
